This is an account of results in ChEMBL document CHEMBL3217721 (Medchemcomm, 2012).

The structures appear in SMILES notation. Active and inactive are the calls of the source. The rule behind the calls is not given here.

Assay [1] deals with HUVEC. In words: Vascular disrupting activity in HUVEC assessed as disruption of capillary-like network of tubules after 2 hrs by matrigel assay. It counts as functional, cell-based. The settings on record: Homo sapiens.
The target in assay [2] is T1, Tubulin (Homo sapiens) (UniProt P68371+Q9H4B7+P0DPH7+P68366+Q13509+Q71U36+P04350+Q3ZCM7+P07437+P68363+Q9BQE3+Q6PEY2+Q13885+Q9BVA1+Q9BUF5). In words: Displacement of [3H]-Colchicine from tubulin (unknown origin) at 5 uM relative to control. It counts as protein-complex assay.
For assay [3], the target named is T1, Tubulin (Homo sapiens). In words: Displacement of [3H]-Colchicine from tubulin (unknown origin) at 1 uM relative to control. It counts as protein-complex assay.
Assay [4] concerns HUVEC. In words: Vascular disrupting activity in HUVEC assessed as cell rounding at 0.1 to 1 uM after 2 hrs by matrigel assay. It counts as functional, cell-based. The note with it: Homo sapiens.
For assay [5], the system named is DU-145. In words: Growth inhibition of human DU145 cells by sulforhodamine B assay. It counts as functional. (Sulforhodamine B stains cellular protein and so reports cell mass.)
Assay [6] concerns NCI-H460. Briefly: Growth inhibition of human NCI-H460 cells by sulforhodamine B assay. It counts as functional.
The subject of assay [7] is HUVEC. Briefly: Vascular disrupting activity in HUVEC assessed as disruption of capillary-like network of tubules at 0.01 to 1 uM after 2 hrs by matrigel assay. It counts as functional, cell-based. The settings on record: Homo sapiens.
In assay [8] the test system is SK-OV-3. In words: Growth inhibition of human SKOV3 cells by sulforhodamine B assay. It counts as functional.
For assay [9], the system named is HUVEC. Briefly: Vascular disrupting activity in HUVEC assessed as disruption of capillary-like network of tubules at 1 uM after 2 hrs by matrigel assay. It counts as functional, cell-based. The note with it: Homo sapiens.
In assay [10] the test system is HUVEC. Briefly: Vascular disrupting activity in HUVEC assessed as cell rounding at 1 uM after 2 hrs by matrigel assay. The note with it: Homo sapiens. It counts as functional, cell-based.
Assay [11] concerns the target Tubulin (Bos taurus, UniProt Q6B856+Q862L2+Q862F3). Briefly: Inhibition of bovine brain tubulin polymerization after 20 mins by spectrophotometric analysis.
In assay [12] the test system is HUVEC. In words: Vascular disrupting activity in HUVEC assessed as disruption of capillary-like network of tubules at 0.01 to 0.1 uM after 2 hrs by matrigel assay. It counts as functional, cell-based. The note with it: Homo sapiens.

In the case of `COc1ccc2c(c1N)CCCC=C2c1cc(OC)c(OC)c(OC)c1` [listing 1 of 3 here], the Activity result in [1] was “Dose-dependent effect”. The results for the inhibition in assay [2] and in [3] were 91% and 65%, respectively. Further, the result in assay [4] was Active.

Consider `COc1ccc(/C=C\c2cc(OC)c(OC)c(OC)c2)cc1O` [COMBRETASTATIN A4], for which the GI50 (commonly the concentration that inhibits growth by half) in assay [5] (Homo sapiens, DU-145) came out at 0.54 nM; in [6], 2.8 nM; in assay [8] it was 0.42 nM. For the same compound, the outcome in assay [7] was Active.

`COc1ccc2c(c1N)CCCC=C2c1cc(OC)c(OC)c(OC)c1` [listing 2 of 3 here] yielded a GI50 in assay [5] of 3.53 nM.

As for `COc1ccc(/C=C\c2cc(OC)c(OC)c(OC)c2)c(O)c1O` [COMBRETASTATIN A-1], the GI50 in assay [5] (Homo sapiens, DU-145) amounted to 33 nM; in assay [6] it was 15 nM; in [8], 38 nM.

In the case of `COc1cc(C2=CCCCc3c2ccc(OC)c3[N+](=O)[O-])cc(OC)c1OC`, the outcome in assay [9] and in assay [10] was Active. Besides, the GI50 in [5] (Homo sapiens, DU-145) amounted to 211 nM; in assay [6] it was 216 nM; in [8], 152 nM. Besides, in assay [2], the inhibition (commonly the share of the control response that was lost under treatment) is 63%. For the same compound, the IC50 (commonly the point on the concentration scale where inhibition reaches its midpoint) in assay [11] is 2500 nM. In assay [12], the result was inactive.

Consider `COc1ccc2c(c1N)CCCC=C2c1cc(OC)c(OC)c(OC)c1` [listing 3 of 3 here], for which the GI50 in [5] is 1.11 nM; in [8] it was 0.0329 nM. Further, in assay [11], the IC50 worked out at 1200 nM.
